The record followed here is patent US9012431B2, “Boron-containing small molecules as anti-inflammatory agents” (Anacor Pharmaceuticals, Inc., priority 2008, dated 2015).

In one assay the test system is TNF-α. Put plainly: Cytokine assay, TNF-α release from PBMC. To be noted: 1 μg/mL LPS; for IC50: Homo sapiens, PBMC, 24 h, supernatant at 24 hours. The class given is cell-based. The procedure, abridged: (§1)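 First, frozen human PBMC are thawed, pelleted and taken up in RPMI 1640 containing 10% FBS. Next, compound serially diluted from a 10 mM DMSO stock is added at 10, 1, 0.1 or 0.01 μM (n=3). Finally, released cytokine is quantified.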

The test system of a further assay is IL-2. The experiment in a line: Cytokine assay, IL-2 release from PBMC. The class given is cell-based. To be noted: human PBMC, 20 ug/mL PHA; for IC50: supernatant at 24 hours. The essentials:
as §1

The subject of another assay is IFN-γ. Put plainly: Cytokine assay, IFN-γ release from PBMC. It is filed as cell-based. The settings on record: human PBMC, 20 ug/mL PHA, supernatant at 24 hours. The essentials:
as §1

The subject of a further assay is IL-5. The experiment in a line: Cytokine assay, IL-5 release from PBMC. It is filed as cell-based. To be noted: human PBMC, 20 ug/mL PHA; for IC50: supernatant at 48 hours. The procedure, abridged: as §1
The subject of a further assay is IL-10. The experiment in a line: Cytokine assay, IL-10 release from PBMC. The class given is cell-based. The settings on record: human PBMC, 20 ug/mL PHA; for IC50: supernatant at 48 hours. The procedure, abridged:
as §1

In assay [1] the test system is T1, PDE4 partially purified from human U-937 myeloid leukemia cells.
T1 construct: PDE4 partially purified from human U-937 myeloid leukemia cells was used
The experiment in a line: PDE4 Assay (enzyme from U-937 cells, [3H]cAMP). It is filed as biochemical. To be noted: PDE4 from U-937 cells, Tris buffer pH 7.5, 20 minutes at 25° C.

In another assay the test system is BALB/c male mice. The experiment in a line: Oxazolone Induced Mouse Ear Edema Model. It is filed as in vivo. The settings on record: for inhibition in vivo at 1 mg: 1 mg/ear × 2 topical; for inhibition in vivo at 3 mg: 3 mg/ear × 2 topical; for inhibition in vivo at 0.2 mg: 0.2 mg/ear × 2 topical. How it is done:
2. In Vivo Anti-Inflammation Activity in Oxazolone Induced Mouse Ear Edema Model
Groups of 5 BALB/c male mice weighing 23±2 g were used. The preshaved abdomens of test animals were sensitized by application of 100 μl, of 1.5% oxazolone solution dissolved in acetone. Seven days after the initial sensitization, test substances, as well as vehicle (acetone:ethanol/1:1, 20 μL/ear) were each administered topically to the anterior and posterior surfaces of the right ear 30 minutes before, and 15 minutes after, challenge by a second application of oxazolone (1% in acetone, […]) via topical route. As a positive control, indomethacin (0.3 mg/ear×2) was administered topically using the same treatment regime as for the test compounds. Twenty-four hours after the second application of oxazolone, the ear thickness of each mouse was measured with a Dyer model micrometer gauge. A 30 percent or more inhibition in ear swelling relative to the vehicle control was considered significant and indicated possible anti-inflammatory activity.

Assay [2] deals with CD-1 (Crl.) derived male mice. The experiment in a line: Phorbol Ester Induced Mouse Ear Edema Model. The class given is in vivo. To be noted: topical, 6 h; for inhibition in vivo at 1 mg: 1 mg/ear × 2 topical; for inhibition in vivo at 0.2 mg: 0.2 mg/ear × 2 topical; for inhibition in vivo at 0.02 mg: 0.02 mg/ear × 2 topical. The protocol:
1. In Vivo Anti-Inflammation Activity in Phorbol Ester Induced Mouse Ear Edema Model
[…] Dexamethasone (1 mg/ear×2) used as the positive control was administered topically to test animals using the same application schedule. Ear swelling was then measured by a Dyer model micrometer gauge at 6 hours after PMA application as an index of inflammation. Percent inhibition was calculated according to the formula: [(Ic−It)/Ic]×100%, where Ic and It refer to increase of ear thickness (mm) in control and treated mice, respectively.

The mark [3] stands for this setting: Acetone:Ethanol/1:1, ear thickness 24 hours after second oxazolone application.
The mark [4] stands for this setting: Acetone:Ethanol/1:1, ear swelling 6 hours after PMA.
Setting [5] is: 95% Ethanol, ear thickness 24 hours after second oxazolone application.
The mark [6] stands for this setting: 95% Ethanol, ear swelling 6 hours after PMA.

By IC50 is commonly meant the concentration that gives 50% inhibition. Low values mean higher potency, high ones lower potency. In general, inhibition in vivo refers to the share of the control response that was lost under treatment. High values mean a response far below the control, low ones a response near the control. Consider `N#Cc1ccc(Oc2ccc3c(c2)COB3O)c(Cl)c1` [D4, 5-(2-Chloro-4-cyanophenoxy)-1,3-dihydro-1-hydroxy-2,1-benzoxaborole], for which the IC50 in the assay on TNF-α was below 1000 nM; in the assay with IL-2, below 1000 nM; in the assay with IFN-γ, below 1000 nM; in the assay on IL-5, below 1000 nM; in the assay with IL-10, above 10000 nM; in assay [1], below 1000 nM. Moreover, in the assay on BALB/c male mice (0.02 mg/ear × 2 topical, Acetone:Ethanol/1:1, ear thickness 24 hours after second oxazolone application), the inhibition in vivo at 0.02 mg is below 20%. Moreover, the inhibition in vivo at 1 mg in the assay with BALB/c male mice (setting [3]) was in the range of 30 to 40%.

Regarding `N#Cc1ccc(Oc2ccc3c(c2)COB3O)cc1C(F)(F)F` [D5, 5-(4-Cyano-3-trifluoromethylphenoxy)-1,3-dihydro-1-hydroxy-2,1-benzoxaborole], the IC50 in the assay on TNF-α was below 1000 nM; in the assay with IL-2, 1000 to 4000 nM; in the assay on IFN-γ, below 1000 nM; in the assay on IL-5 it was below 1000 nM; with IL-10, above 10000 nM; in assay [1], below 1000 nM. Moreover, the results for the inhibition in vivo at 1 mg (in assay [2] (setting [4]); with BALB/c male mice (setting [3])) were 30 to 60% and 30 to 40%, respectively.

Regarding `COc1cc(C#N)ccc1Oc1ccc2c(c1)COB2O` [D15, 5-(4-Cyano-2-methoxyphenoxy)-1,3-dihydro-1-hydroxy-2,1-benzoxaborole], the half-maximal inhibitory concentration (IC50) (in the assay with TNF-α; in the assay with IL-2; in the assay on IFN-γ; in assay [1]) was below 1000 nM each time. For the same compound, the figures for the inhibition in vivo at 1 mg (in assay [2] (setting [4]); with BALB/c male mice (setting [3])) were 30 to 60% and 40 to 60%, respectively.

As to `CCOC(=O)COc1cc(C#N)ccc1Oc1ccc2c(c1)COB2O` [D16, 5-[4-Cyano-2-(ethoxycarbonylmethoxy)phenoxy]-1,3-dihydro-1-hydroxy-2,1-benzoxaborole], the IC50 in the assay on TNF-α is below 1000 nM; in the assay on IL-2 it was 1000 to 4000 nM; in the assay on IFN-γ it was below 1000 nM; in assay [1], below 1000 nM. Further, in assay [2] (setting [4]), the inhibition in vivo at 0.2 mg lay in the range of 60 to 90%. Further, in assay [2] (setting [4]), the inhibition in vivo at 1 mg fell in the range of 90 to 100%. In the assay on BALB/c male mice (setting [5]), this compound displayed an inhibition in vivo at 3 mg below 20%.

On to `CCOC(=O)c1ccc(Oc2ccc3c(c2)COB3O)nc1OCC` [D27, Ethyl 2-ethoxy-6-(1-hydroxy-1,3-dihydrobenzo[c][1,2]oxaborol-5-yloxy)nicotinate], for which the IC50 (in the assay with TNF-α; in the assay with IL-2; in the assay on IFN-γ; in assay [1]) was below 1000 nM in each case. In the assay on BALB/c male mice (setting [5]), this compound showed an inhibition in vivo at 3 mg of 20 to 30%.

With `CCOC(=O)c1cnc(Oc2ccc3c(c2)COB3O)c(Cl)c1` [D48, Ethyl 5-chloro-6-(1-hydroxy-1,3-dihydrobenzo[c][1,2]oxaborol-5-yloxy)nicotinate], the concentration for half-maximal inhibition (IC50) (in the assay on TNF-α; in the assay on IL-2; in the assay with IFN-γ; in assay [1]) was below 1000 nM each time. Besides, the inhibition in vivo at 0.2 mg in assay [2] (setting [4]) was below 30%; in the assay on BALB/c male mice (setting [3]), below 20%. For the same compound, the inhibition in vivo at 1 mg is below 30% in assay [2] (setting [4]) and 20 to 30% with BALB/c male mice (setting [3]).

Usually inhibition stands for the relative decrease from the control value, in per cent. For the compound `O=C(O)c1ccc(Oc2ccc3c(c2)COB3O)nc1` [D61, 6-(1-Hydroxy-1,3-dihydrobenzo[c][1,2]oxaborol-5-yloxy)nicotinic acid], the inhibition at 10 µM with TNF-α (human PBMC, 24 hours, 10 μM) is below 30%; with IL-2 (24 hours, 10 μM), below 30%; in the assay on IL-5 (48 hours, 10 μM), 30 to 60%; in the assay with IL-10 (48 hours, 10 μM), below 30%. In addition, the inhibition in vivo at 0.1 mg is below 30% in assay [2] (0.1 mg/ear × 2 topical, Acetone:Ethanol/1:1, ear swelling 6 hours after PMA) and below 20% in the assay on BALB/c male mice (0.1 mg/ear × 2 topical, Acetone:Ethanol/1:1, ear thickness 24 hours after second oxazolone application). Also, the inhibition in vivo at 0.2 mg in assay [2] (setting [4]) is below 30%; with BALB/c male mice (setting [3]), below 20%. The inhibition in vivo at 1 mg in assay [2] (setting [4]) is 30 to 60%; with BALB/c male mice (setting [3]), below 20%.

Take `COCCN(C)c1nc(Oc2ccc3c(c2)COB3O)ccc1C#N` [D96, 6-(1-hydroxy-1,3-dihydro-benzo[c][1,2]oxaborol-5-yloxy)-2-[(2-methoxy-ethyl)-methyl-amino]-nicotinonitrile]: the IC50 was below 1000 nM with TNF-α; below 1000 nM with IL-2; below 1000 nM with IFN-γ; 1000 to 4000 nM in the assay with IL-5; 1000 to 4000 nM with IL-10; below 1000 nM in assay [1]. Besides, in the assay with BALB/c male mice (setting [3]), the inhibition in vivo at 1 mg was below 20%.

Regarding `COCCNc1ccc(C#N)c(Oc2ccc3c(c2)COB3O)n1` [D101, 2-(1-Hydroxy-1,3-dihydro-benzo[c][1,2]oxaborol-5-yloxy)-6-(2-methoxy-ethylamino)-nicotinonitrile], the half-inhibitory concentration (IC50) with TNF-α is below 1000 nM; in the assay with IL-2, below 1000 nM; with IFN-γ it was below 1000 nM; with IL-5 it was below 1000 nM; in the assay with IL-10 it was 1000 to 4000 nM; in assay [1] it was below 1000 nM. This compound had an inhibition in vivo at 0.8 mg in assay [2] (0.8 mg/ear × 2 topical, 95% Ethanol, ear swelling 6 hours after PMA) below 30%. In addition, the inhibition in vivo at 2.4 mg in assay [2] (2.4 mg/ear × 2 topical, 95% Ethanol, ear swelling 6 hours after PMA) is below 30%.

For `COc1cc(Oc2ccc3c(c2)COB3O)ncc1C#N` [D109, 6-(1-Hydroxy-1,3-dihydro-benzo[c][1,2]oxaborol-5-yloxy)-4-methoxy-nicotinonitrile], the 50% inhibitory concentration (IC50) (with TNF-α; in the assay with IL-2; in the assay on IFN-γ; in the assay on IL-5; in the assay on IL-10; in assay [1]) was below 1000 nM in each case. In assay [2] (setting [6]), this compound registered an inhibition in vivo at 0.02 mg below 30%. In assay [2] (0.067 mg/ear × 2 topical, 95% Ethanol, ear swelling 6 hours after PMA), this compound displayed an inhibition in vivo at 0.067 mg below 30%. The compound also came in with an inhibition in vivo at 0.2 mg in assay [2] (setting [6]) below 30%.

For the compound `CNc1nc(Oc2ccc3c(c2)COB3O)ccc1C#N` [D110, 6-(1-Hydroxy-1,3-dihydro-benzo[c][1,2]oxaborol-5-yloxy)-2-methylamino-nicotinonitrile], the concentration for half-maximal inhibition (IC50) in the assay with TNF-α is below 1000 nM; in the assay with IL-2, below 1000 nM; in the assay on IFN-γ, below 1000 nM; in the assay on IL-5 it was below 1000 nM; with IL-10, above 10000 nM; in assay [1] it was below 1000 nM. In assay [2] (setting [6]), this compound yielded an inhibition in vivo at 0.02 mg below 30%. Further, the inhibition in vivo at 0.06 mg in assay [2] (0.06 mg/ear × 2 topical, 95% Ethanol, ear swelling 6 hours after PMA) is below 30%. Also, the inhibition in vivo at 0.2 mg in assay [2] (setting [6]) was below 30%.

`COCCNc1nc(Oc2ccc3c(c2)COB3O)ccc1C#N` [D111, 6-(1-Hydroxy-1,3-dihydro-benzo[c][1,2]oxaborol-5-yloxy)-2-(2-methoxy-ethylamino)-nicotinonitrile] yielded an IC50 in the assay on TNF-α below 1000 nM. This compound also yielded an inhibition in vivo at 0.015 mg in assay [2] (0.015 mg/ear × 2 topical, 95% Ethanol, ear swelling 6 hours after PMA) below 30%. Moreover, in assay [2] (0.05 mg/ear × 2 topical, 95% Ethanol, ear swelling 6 hours after PMA), the inhibition in vivo at 0.05 mg is below 30%. The inhibition in vivo at 0.15 mg is below 30% in assay [2] (0.15 mg/ear × 2 topical, 95% Ethanol, ear swelling 6 hours after PMA) and below 20% in the assay on BALB/c male mice (0.15 mg/ear × 2 topical, 95% Ethanol, ear thickness 24 hours after second oxazolone application). Moreover, the inhibition in vivo at 1 mg in assay [2] (setting [6]) is below 30%.

As for `COc1nc(Oc2cc3c(cc2F)B(O)OC3)ccc1C#N` [D122, 6-(6-Fluoro-1-hydroxy-1,3-dihydrobenzo[c][1,2]oxaborol-5-yloxy)-2-methoxynicotinonitrile], the half-inhibitory concentration (IC50) (with TNF-α; in the assay on IL-2; with IFN-γ; in the assay with IL-5; with IL-10; in assay [1]) was below 1000 nM in each case. In the assay on BALB/c male mice (setting [3]), this compound showed an inhibition in vivo at 1 mg below 20%.

In turn, `COc1ccc2c(c1)c(CC(=O)O)c(C)n2C(=O)c1ccc(Cl)cc1` [Indomethacin, indomethacin, reference compound] returned an inhibition in vivo at 0.3 mg in the assay on BALB/c male mice (0.3 mg/ear × 2 topical, 95% Ethanol, ear thickness 24 hours after second oxazolone application) of 40 to 60%.
